For eight compounds, IC50 results are on record in patent EP2951180B1, “2,6,7,8 SUBSTITUTED PURINES AS HDM2 INHIBITORS” (Merck Sharp & Dohme Corp., priority 2013, dated 2014).

For orientation: IC50 means the concentration that inhibits the measured activity by half. Low values mean greater potency, high ones weaker potency.

This assay concerns the target T1, HDM2 (Homo sapiens, UniProt Q00987).
T1 construct: Thioredoxin (N); made in house; host or cells: E. coli strain BL21(DE3)Rosetta
The assay is described as follows: FRET assay (HDM2 inhibition; method not described in this part). Format: binding.

T1 sequence (Q00987 17-125): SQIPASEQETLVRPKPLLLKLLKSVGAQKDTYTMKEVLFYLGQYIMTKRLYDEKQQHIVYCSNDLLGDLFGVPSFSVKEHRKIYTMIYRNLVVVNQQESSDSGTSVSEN

For `Cc1cccc(-c2nc3nc(C(=O)O)nc(N[C@H](C)C4CCC4)c3n2Cc2ccc(C(F)(F)F)cc2Cl)c1` [Example 5.12, 7-[2-chloro-4-(trifluoromethyl)benzyl]-6-{[(1R)-1-cyclobutylethyl]amino}-8-(3-methylphenyl)-7H-purine-2-carboxylic acid], half-maximal inhibition (Table 5) (IC50) was put at 94.6 nM.

Compound `Cc1ccc(OCCC(=O)O)c(-c2nc3nc(C(=O)O)nc(N[C@H](C)C4CC4)c3n2Cc2ccc(Cl)cc2)c1` [Example 4.11, (R)-8-(2-(2-carboxyethoxy)-5-methylphenyl)-7-(4-chlorobenzyl)-6-((1-cyclopropylethyl)amino)-7H-purine-2-carboxylic acid] showed a half-inhibitory concentration (IC50) (Table 4) of 312 nM.

As for `CC(C)c1ccnc(-c2nc3nc(C(=O)O)nc(N[C@H](C)C4CCC4)c3n2Cc2ccc(Cl)c(F)c2)c1` [Example 1.6, 7-(4-chloro-3-fluorobenzyl)-6-{[(1R)-1-cyclobutylethyl]amino}-8-[4-(propan-2-yl)pyridin-2-yl]-7H-purine-2-carboxylic acid], the IC50 (Table 1) was determined as 2.79 nM.

Regarding `C[C@@H](Nc1nc(C(=O)O)nc2nc(-c3ccc(C(=O)C4CC4)cc3)n(Cc3ccc(C(F)(F)F)cc3)c12)C1CCC1` [Example 1.116, 6-{[(1R)-1-cyclobutylethyl]amino}-8-[4-(cyclopropylcarbonyl)phenyl]-7-[4-(trifluoromethyl)benzyl] - 7H-purine-2-carboxylic acid], the IC50 (Table 1) came out at 66.3 nM.

Where the note is “Table 1”, `CCOc1ccc(C(F)(F)F)cc1-c1nc2nc(C(=O)O)nc(N[C@H](C)C3CCC3)c2n1Cc1ccc(C(F)(F)F)cc1` [Example 1.33, 6-{[(1R)-1-cyclobutylethyl]amino}-8-[2-ethoxy-5-(trifluoromethyl)phenyl]-7-[4-(trifluoromethyl)benzyl] - 7H-purine-2-carboxylic acid] gave an IC50 of 19.8 nM.

As for `C[C@@H](Nc1nc(C(=O)O)nc2nc(-c3cc(CCC4CC4)ccn3)n(Cc3ccc(C(F)(F)F)cc3)c12)C1CCC1` [Example 1.89, 6-{[(1R)-1-cyclobutylethyl]amino}-8-[4-(2-cyclopropylethyl)pyridin-2-yl]-7-[4-(trifluoromethyl)benzyl]-7H-purine-2-carboxylic acid], the IC50 (Table 1) came out at 8.67 nM.

`C[C@@H](Nc1nc(C(=O)O)nc2nc(-c3cc(C4CCCC4)ccn3)n(Cc3ccc(C(F)(F)F)cc3)c12)C1CCC1` [Example 1.55, 6-{[(1R)-1-cyclobutylethyl]amino}-8-(4-cyclopentylpyridin-2-yl)-7-[4-(trifluoromethyl)benzyl]-7H-purine-2-carboxylic acid]: the IC50 (Table 1) was determined as 4.77 nM.

Regarding `Cc1cnc(-c2nc3nc(C(=O)O)nc(N[C@H](C)C4CCC4)c3n2Cc2ccc(C(F)(F)F)cc2)cc1C(C)C` [Example 1.86, 6-{[(1R)-1-cyclobutylethyl]amino}-8-[5-methyl-4-(1-methylethyl)pyridin-2-yl]-7-[4-(trifluoromethyl)benzyl]-7H-purine-2-carboxylic acid], inhibition (Table 1) was half-maximal at 24.8 nM (IC50).
